Results on 13 molecules are retold here after patent US7589096B2, “Azole derivatives” (Banyu Pharmaceutical Co., Ltd., priority 2002, dated 2009).

Counter-ions that a name gives are not always drawn. Like-named read-outs stand apart in the source and are kept apart here.

One series concerns the target T1, human NPY Y5 receptor (Homo sapiens, UniProt Q15761).
T1 construct: expressed in transfected cells; host or cells: COS-7, CHO and LM(tk-)
T1 sequence (Q15761 1-445): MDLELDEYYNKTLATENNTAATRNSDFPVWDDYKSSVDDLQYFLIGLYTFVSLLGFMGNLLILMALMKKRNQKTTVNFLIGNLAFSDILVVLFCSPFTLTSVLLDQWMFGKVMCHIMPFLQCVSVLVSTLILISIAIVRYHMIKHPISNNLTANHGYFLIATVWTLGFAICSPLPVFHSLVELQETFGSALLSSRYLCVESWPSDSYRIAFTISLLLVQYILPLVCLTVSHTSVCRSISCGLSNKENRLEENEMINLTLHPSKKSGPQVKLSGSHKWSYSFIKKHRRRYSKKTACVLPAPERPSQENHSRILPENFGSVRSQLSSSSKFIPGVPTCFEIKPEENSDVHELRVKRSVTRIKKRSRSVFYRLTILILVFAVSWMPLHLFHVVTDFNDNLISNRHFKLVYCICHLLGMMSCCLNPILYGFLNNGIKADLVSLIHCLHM
In words: NPY binding inhibition test ([125I]peptide YY binding to membranes of NPY Y5 receptor expression cells). The settings on record: [125I]peptideYY, membrane sample, 25° C., 2 hours; read-out: IC50 against specific peptide YY binding. An excerpt: cDNA sequence encoding human NPY Y5 receptor (cf. International patent publication number WO96/16542) was cloned into expression vectors pcDNA3, pRc/RSV (made by invitrogen Inc.) and pCI-neo (made by Promega Inc.). The expression vectors thus obtained were transfected to host cells COS-7, CHO and LM(tk-) (American Type Culture Collection) by cationic lipid method (Proceedings of the National Academy of Sciences of the United States of America, 84: 7413 (1987)) to give NPY Y5 receptor expression cells.
A membrane sample prepared from the cells which expressed NPY Y5 receptor was incubated together with a test compound and [^125I]peptideYY (made by NEN) (20,000 cpm) in man assay buffer (25 mM Tris buffer, pH 7.4, containing 10 mM magnesium chloride, 1 mM phenylmethylsulfonyl fluoride, 0.1% bacitracin and 0.5% bovine serum albumin) at 25° C. for 2 hours, then filtered through a glass filter GF/C and washed with 5 mM Tris buffer (pH7.4) containing 0.3% BSA. The radioactivity of the cake on the glass filter was measured. Non-specific binding was measured in the presence of 1 μM peptide YY, and a 50% Inhibitory Concentration (IC50) of the test compound against specific peptide YY binding was determined (Endocrinology; 131: 2090 (1992)).

A short description of series [1]: Brain/cerebrospinal fluid transport test. Conditions: male SD rats, 2 hours after oral administration (10 mg/kg); for concentration at 2 h: rat. Type of series: in vivo. The method, then: A test compound was orally or intravenously administered to male SD rats (7-10 weeks old, 200-400 g), and whole blood was collected from the abdominal aorta of said rats anesthetized with ether at predetermined time, using a heparin-treated syringe. Then, the head skin was cut open, and a dental 30 G needle was inserted between the cervical vertebrae, and it was further inserted into the cavum subarachnoideale. After 50 to 100 μL cerebrospinal fluid had been collected by a 1 ml-syringe through a tube connected to said dental 30 G needle, the brain was extracted. The blood sample was centrifuged (4° C., 6,000 r.p.m., 10 minutes) to collect the plasma, to which was added 3-fold amount of ethanol containing an internal standard, and the mixture was stirred. The brain sample was homogenized after addition of 2 ml water, an aliquot of the homogenate was taken and 3-fold amount of ethanol containing an internal standard was added thereto and stirred. The cerebrospinal fluid was stirred after adding 3-fold amount of ethanol containing an internal standard. The samples thus obtained were allowed to stand at −20° C. for 20 minutes, and then centrifuged (4° C., 12,000 g, 10 minutes). The supernatant was analyzed by LC/MS/MS, and the concentration of the test compound in the plasma, brain, and cerebrospinal fluid were measured by the method using a relative calibration curve.

For `O=C1OC2(CCN(c3nc(-c4ccc5ccccc5c4)n[nH]3)CC2)c2ccccc21` [Example 30, 3-(2-naphthyl)-5-[3-oxospiro[isobenzofuran-1-(3H),4′-piperidin]-1′-yl]-1H-1,2,4-triazole], the IC50 at human NPY Y5 receptor came out at 4.2 nM.

Consider `O=C1OC2(CCN(c3cc(-c4ccnc(-c5ccccc5)c4)[nH]n3)CC2)c2ccccc21` [Example 14, 3-[3-oxospiro[isobenzofuran-1(3H),4′-piperidin]-1′-yl]-5-(2-phenylpyridin-4-yl)-1H-pyrazole], for which the half-maximal inhibitory concentration (IC50) on human NPY Y5 receptor came to 1.7 nM.

As for `O=C1OC2(CCN(c3cc(-c4ccnc(-c5ccccc5)n4)[nH]n3)CC2)c2cnccc21` [Example 45, 3-[3-oxospiro[6-azaisobenzofuran-1(3H),4′-piperidin]-1′-yl]-5-(2-phenylpyrimidin-4-yl)-1H-pyrazole], on human NPY Y5 receptor, the IC50 was 1.5 nM.

On to `O=C1OC2(CCN(c3cc(-c4ccnc(-c5ccccc5)n4)[nH]n3)CC2)c2ccccc21` [Example 19, 3-[3-oxospiro[isobenzofuran-1(3H),4′-piperidin]-1′-yl]-5-(2-phenylpyrimidin-4-yl)-1H-pyrazole], for which, at human NPY Y5 receptor, the IC50 was determined as 1.6 nM.

With `O=C1OC2(CCC(c3nn4nc(-c5ccccc5)cc4[nH]3)CC2)c2ccccc21` (stereo not drawn) [Example 36, trans-2-[3′-oxospiro[cyclohexane-1,1′(3′H)-isobenzofuran]-4-yl]-6-phenyl-1H-pyrazolo[2,3-b][1,2,4]triazole], the IC50 on human NPY Y5 receptor is 1.8 nM.

Regarding `O=C1OC2(CCN(c3nc(-c4ccc5ccccc5c4)c[nH]3)CC2)c2ccccc21` [Example 1, 4-(2-naphthyl)-2-[3-oxospiro[isobenzofuran-1(3H),4′-piperidin]-1′-yl]-1H-imidazole hydrochloride], the IC50 on human NPY Y5 receptor is 1.7 nM.

In the case of `O=C1OC2(CCN(c3cc(-c4ccnc(-c5ccccc5F)n4)[nH]n3)CC2)c2cnccc21` [Example 46, 3-[3-oxospiro[6-azaisobenzofuran-1(3H),4′-piperidin]-1′-yl]-5-[2-(2-fluorophenyl)pyrimidin-4-yl]-1H-pyrazole], the 50% inhibitory concentration (IC50) at human NPY Y5 receptor was determined as 1.5 nM.

Turning to `O=C1OC2(CCC(c3nn4nc(-c5ccccc5)cc4[nH]3)CC2)c2cnccc21` (stereo not drawn) [Example 35, trans-2-[3-oxospiro[6-azaisobenzofuran-1(3H),1′-cyclohexan]-4′-yl]-6-phenyl-1H-pyrazolo[2,3-b][1,2,4]triazole], on human NPY Y5 receptor, the IC50 came to 3.3 nM.

Turning to `O=C1OC2(CCC(c3nn4nc(-c5ccccc5F)cc4[nH]3)CC2)c2cnccc21` (stereo not drawn) [Example 34, trans-6-(2-fluorophenyl)-2-[3-oxospiro[6-azaisobenzofuran-1(3H),1′-cyclohexan]-4′-yl]-1H-pyrazolo[2,3-b][1,2,4]-triazole], at human NPY Y5 receptor, the IC50 is 3.5 nM.

As to `O=C1OC2(CCC(c3cc(-c4cncc(-c5ccccc5)n4)[nH]n3)CC2)c2ccccc21` (stereo not drawn) [Example 24, trans-3-[3′-oxospiro[cyclohexane-1,1′(3′H)-isobenzofuran]-4-yl]-5-(6-phenylpyrazin-2-yl)-1H-pyrazole], the 50% inhibitory concentration (IC50) at human NPY Y5 receptor turned out to be 3.9 nM.

Regarding `O=C1OC2(CCC(c3cc(-c4ccnc(-c5ccccc5)n4)[nH]n3)CC2)c2cnccc21` (stereo not drawn) [Example 29, trans-3-[3-oxospiro[6-azaisobenzofuran-1(3H),1′-cyclohexan]-4′-yl]-5-(2-phenylpyrimidin-4-yl)-1H-pyrazole], the “concentration in the brain” value in series [1] turned out to be 3.01 nmol/g. In addition, the concentration at 2 h came to 15 nM in series [1] (cerebrospinal fluid, read-out: concentration in the cerebrospinal fluid) and 1160 nM in series [1] (plasma, read-out: concentration in the plasma). For the same molecule, on human NPY Y5 receptor, the IC50 was 3.9 nM.

As for `O=C1OC2(CCN(c3cc(-c4ccnc(-c5ccc(F)cc5)n4)[nH]n3)CC2)c2cnccc21` [Example 47, 3-[3-oxospiro[6-azaisobenzofuran-1(3H),4′-piperidin]-1′-yl]-5-[2-(4-fluorophenyl)pyrimidin-4-yl]-1H-pyrazole], at human NPY Y5 receptor, the IC50 was 2.2 nM.

For the molecule `O=C1OC2(CCC(c3cc(-c4ccnc(-c5ccccc5)n4)[nH]n3)CC2)c2ccccc21` (stereo not drawn) [Example 23, trans-3-[3′-oxospiro[cyclohexane-1,1′(3′H)-isobenzofuran]-4-yl]-5-(2-phenylpyrimidin-4-yl)-1H-pyrazole], on human NPY Y5 receptor, the IC50 was 2.7 nM.

Usually IC50 stands for the point on the concentration scale where inhibition reaches its midpoint.
